Where “and” joins values, the source holds several entries; their conditions need not be identical. Equal entries are not always repeated. Where two headings read alike, the source gives them in different places. Where a SMILES comes first, the peptide text is derived from it.
Experiments:
Format in all cases: biochemical
[1] = target: recombinant human dipeptidyl peptidase IV (DPPIV) (Homo sapiens (Human), UniProt P27487); assay: In vitro IC50 assay, dipeptidyl peptidase IV (Example 15); settings: Gly-Pro-AMC, room temperature
Description: (§1) The purpose of this assay is to determine the IC50 of various inhibitors against recombinant human dipeptidyl peptidase IV (DPPIV), fibroblast activation protein (FAP) or prolyl oligopeptidase (PREP).
(§2) The assays are conducted in the following steps: • 1 Dissolve the compound in DMSO to a final concentration of 100 mM. From this, prepare a 1 mM stock at pH 7.5 in 50 mM Tris, 140 mM NaCl Buffer (FAP)/pH 7.5 in 25 mM Tris, 250 mM NaCl Buffer/pH 8.0 140 mM NaCl Buffer (PREP). • 2. Serial dilute (1:10) the 1 mM compound stocks prepared previously into the appropriate assay buffer (FAP: 50 mM Tris, 140 mM NaCl, pH 7.5/PREP: 25 mM Tris, 0.25 M NaCl, pH 7.5/DPPIV: 25 mM Tris, pH 8.0) to one row of a 96-well plate. • 3. […] Dilute the enzymes into their appropriate assay buffers. The final enzyme concentrations should be 0.1, 1.2, and 0.6 nM for DPPIV, FAP and PREP respectively. Add 180 μL to each well needed in columns 2-10. Column 1 (A,B,C) should be prepared with 200 ul of appropriate assay buffer as control. Column 1 (D,E,F,G,H) should be prepared with 20 ul of appropriate assay buffer and 180 ul enzyme as no inhibitor control. • 5. Add 20 μL of the compound of interest from the dilution plate prepared in step 2 to columns 2-10 of the assay plate where appropriate. Each sample should be tested in triplicate. Allow this to incubate for 10 minutes at room temperature, shaking the plate for the first two minutes. • 6. Add 10 μL of 20× substrate prepared in step 3 to each well and allow this to incubate for 15 minutes at room temperature, shaking the plate for the first two minutes. • 7. Read the fluorescence at λex: 380, λem: 460. (DPcore=[dAla|dSerGly]-[boroPro|Pro-nitrile], XXaa=alpha-amino acid)

[2] = target: recombinant human prolyl oligopeptidase (PREP) (Homo sapiens (Human), UniProt P48147); assay: In vitro IC50 assay, prolyl oligopeptidase (Example 15)
Description: as §1, §2

[3] = target: recombinant human fibroblast activation protein (FAP) (Homo sapiens (Human), UniProt Q12884); assay: In vitro IC50 assay, fibroblast activation protein (Example 15)
Description: as §1, §2

[4] = Z-Gly-Pro-AMC, room temperature, read-out: PREP IC50
[5] = Z-Gly-Pro-AMC, room temperature, read-out: FAP IC50

Sequence of recombinant human dipeptidyl peptidase IV (DPPIV) (P27487 whole entry): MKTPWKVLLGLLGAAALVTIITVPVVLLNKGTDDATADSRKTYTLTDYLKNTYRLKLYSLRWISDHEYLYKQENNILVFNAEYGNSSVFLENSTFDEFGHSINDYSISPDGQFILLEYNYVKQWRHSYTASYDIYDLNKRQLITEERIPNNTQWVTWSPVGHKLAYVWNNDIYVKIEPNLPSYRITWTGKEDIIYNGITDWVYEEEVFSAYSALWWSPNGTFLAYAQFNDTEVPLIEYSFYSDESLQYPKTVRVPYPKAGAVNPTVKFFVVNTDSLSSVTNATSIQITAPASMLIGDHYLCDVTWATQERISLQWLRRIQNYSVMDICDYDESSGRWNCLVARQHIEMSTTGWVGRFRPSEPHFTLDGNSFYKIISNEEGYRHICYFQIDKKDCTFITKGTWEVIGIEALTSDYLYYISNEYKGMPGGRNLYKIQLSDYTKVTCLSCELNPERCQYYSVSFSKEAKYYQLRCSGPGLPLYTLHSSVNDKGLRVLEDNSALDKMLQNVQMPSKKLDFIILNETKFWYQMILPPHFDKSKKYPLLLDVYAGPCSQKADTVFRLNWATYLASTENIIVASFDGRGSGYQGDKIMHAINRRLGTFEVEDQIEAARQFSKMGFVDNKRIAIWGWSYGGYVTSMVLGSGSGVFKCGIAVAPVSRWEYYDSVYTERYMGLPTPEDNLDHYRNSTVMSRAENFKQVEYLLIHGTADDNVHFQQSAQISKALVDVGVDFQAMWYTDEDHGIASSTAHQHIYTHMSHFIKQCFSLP
Sequence of recombinant human fibroblast activation protein (FAP) (Q12884 whole entry): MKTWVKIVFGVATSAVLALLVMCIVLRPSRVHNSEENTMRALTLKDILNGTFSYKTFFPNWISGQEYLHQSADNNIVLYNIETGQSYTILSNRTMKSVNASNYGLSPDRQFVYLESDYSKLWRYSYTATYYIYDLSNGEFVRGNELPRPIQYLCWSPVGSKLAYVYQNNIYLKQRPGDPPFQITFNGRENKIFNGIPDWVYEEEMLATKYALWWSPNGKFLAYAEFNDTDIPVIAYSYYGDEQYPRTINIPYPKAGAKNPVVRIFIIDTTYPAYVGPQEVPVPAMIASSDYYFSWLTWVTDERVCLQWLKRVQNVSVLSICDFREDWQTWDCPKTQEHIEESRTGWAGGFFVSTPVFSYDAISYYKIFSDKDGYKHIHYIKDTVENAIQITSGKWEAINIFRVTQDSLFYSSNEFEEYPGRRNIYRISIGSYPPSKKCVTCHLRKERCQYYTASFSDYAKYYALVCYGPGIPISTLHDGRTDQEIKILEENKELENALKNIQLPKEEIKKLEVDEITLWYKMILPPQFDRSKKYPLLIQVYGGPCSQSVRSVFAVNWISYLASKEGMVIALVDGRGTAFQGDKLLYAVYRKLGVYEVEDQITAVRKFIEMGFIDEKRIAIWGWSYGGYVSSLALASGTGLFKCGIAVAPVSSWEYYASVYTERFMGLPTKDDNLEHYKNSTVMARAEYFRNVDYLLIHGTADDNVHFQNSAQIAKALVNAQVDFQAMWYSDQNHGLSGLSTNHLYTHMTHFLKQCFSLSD
Sequence of recombinant human prolyl oligopeptidase (PREP) (P48147 whole entry): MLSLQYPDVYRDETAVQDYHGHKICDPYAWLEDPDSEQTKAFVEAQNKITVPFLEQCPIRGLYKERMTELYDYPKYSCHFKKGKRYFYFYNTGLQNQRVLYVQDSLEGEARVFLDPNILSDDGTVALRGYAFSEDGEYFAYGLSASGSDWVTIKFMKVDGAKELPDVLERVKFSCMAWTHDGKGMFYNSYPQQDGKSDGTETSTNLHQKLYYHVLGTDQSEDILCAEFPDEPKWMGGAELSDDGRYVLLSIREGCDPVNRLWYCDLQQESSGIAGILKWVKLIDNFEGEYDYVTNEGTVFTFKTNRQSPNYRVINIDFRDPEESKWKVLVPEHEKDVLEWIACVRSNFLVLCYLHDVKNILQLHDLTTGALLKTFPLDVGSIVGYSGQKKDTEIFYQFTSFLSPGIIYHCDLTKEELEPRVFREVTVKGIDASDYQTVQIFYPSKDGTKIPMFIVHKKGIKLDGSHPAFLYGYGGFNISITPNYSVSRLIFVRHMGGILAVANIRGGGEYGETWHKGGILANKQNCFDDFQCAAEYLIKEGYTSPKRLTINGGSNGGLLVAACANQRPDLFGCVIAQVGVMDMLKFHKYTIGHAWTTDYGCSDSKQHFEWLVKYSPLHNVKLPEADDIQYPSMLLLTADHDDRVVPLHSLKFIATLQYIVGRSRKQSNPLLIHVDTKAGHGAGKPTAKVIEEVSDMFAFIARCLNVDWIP

| Molecule | IC50 [1] [µM] | IC50 [2, 4] [µM] | IC50 [3, 5] | IC50 [3] [nM] | IC50 [2] [µM] |
| --- | --- | --- | --- | --- | --- |
| CC(C)[C@H](NC(=O)CNC(=O)CC[C@H](C(=O)O)N1CCN(CC(=O)O)CCN(CC(=O)O)CCN(CC(=O)O)CC1)C(=O)N[C@H](C)C(=O)N1CCC[C@H]1B(O)O [Compound 6795D, (R)-DOTAGA-Gly-Val-D-ala-boroPro] | > 100 |  |  |  |  |
| C[C@@H](NC(=O)c1ccc(NNC(=O)CCCCCC2=C(/C=C/C3=C(Oc4ccc(S(=O)(=O)O)cc4)C(=C/C=C4/N(CCCCS(=O)(=O)O)c5ccc(S(=O)(=O)O)cc5C4(C)C)/CCC3)C(C)(C)c3cc(S(=O)(=O)O)ccc32)nc1)C(=O)N1CCC[C@H]1B(O)O [Compound 4613B, IRDye800CW-3860] | > 100 | 0.39 | 8.8 nM and 10 nM |  |  |
| C[C@@H](NC(=O)c1ccc(NNC(=O)CCCCCNC(=O)CN2CCN3CCN4CCN(CC2)CC(=O)[O][Ga]([O]C(=O)C3)[O]C(=O)C4)cc1)C(=O)N1CCC[C@H]1B(O)O [Compound 6486GA] | > 100 | 4.7 | 81 nM |  |  |
| C[C@H](NC(=O)CN1CCN2CCN3CCN(CC1)CC(=O)[O][Gd]([O]C(=O)C2)[O]C(=O)C3)C(=O)N[C@H](C)C(=O)N1CCC[C@H]1B(O)O [Compound 6511Gd, DOTA[(Gd(III)]-Ala-D-Ala-boroPro] |  |  | 428 nM |  |  |
| C[C@@H](NC(=O)c1ccc(NNC(=O)CCCNC(=O)CN2CCN3CCN4CCN(CC2)CC(=O)[O][Ga]([O]C(=O)C3)[O]C(=O)C4)cc1)C(=O)N1CCC[C@H]1B(O)O [Compound 6489GA] | > 100 | 3.4 | 39 nM |  |  |
| CC(C)[C@H](NC(=O)CNC(=O)CNC(=O)CNC(=O)CCC(C(=O)O)N1CCN(CC(=O)O)CCN(CC(=O)O)CCN(CC(=O)O)CC1)C(=O)N[C@H](C)C(=O)N1CCC[C@H]1B(O)O (mixture of isomers) [Compound 6808, (R/S)-DOTAGA-(Gly)3-Val-Dala-boroPro] |  |  |  | 11.5 |  |
| C[C@@H](NC(=O)CN1CCN(CC(=O)O)CCN(CC(=O)O)CCN(CC(=O)O)CC1)C(=O)N1CCC[C@H]1B(O)O [Compound 4535, DOTA-D-ala-boroPro] |  | > 10 |  | 33 | 10 |
| CC(C)[C@H](NC(=O)CNC(=O)CNC(=O)CN1CCN2CCN3CCN(CC1)CC(=O)[O][Lu]([O]C(=O)C2)[O]C(=O)C3)C(=O)N[C@H](C)C(=O)N1CCC[C@H]1B(O)O [Compound 6522LU, DOTA(Lu)-Gly-Gly-Val-D-ala-boroPro] (HELM PEPTIDE1{[O=C1CN2CCN3CCN(CC(=O)[*:2])CCN(CC2)CC(=O)[O][Lu]([O]1)[O]C(=O)C3].G.G.V.[dA].[OB(O)[C@@H]1CCCN1[*:1]]}$$$$V2.0) | > 100 | 19 | 26 nM |  |  |
| C[C@@H](NC(=O)c1ccc(NC(=O)CCCCNC(=O)CN2CCN3CCN4CCN(CC2)CC(=O)[O][Lu]([O]C(=O)C3)[O]C(=O)C4)cc1)C(=O)N1CCC[C@H]1B(O)O [Compound 6590LU] |  |  | 0.4 nM |  |  |
| C[C@@H](NC(=O)c1ccc(NN)nc1)C(=O)N1CCC[C@H]1B(O)O [Compound 3860, N-(6-hydrazinylnicotincarbonyl)-D-AlaboroPro] | > 100 |  |  |  |  |
| (R)-DOTAGA(Ga)-Gly-Val-Dala-boroPro [Compound 6795DGA] | > 100 | 9.4 | 310 nM |  |  |
| CC(C)[C@H](NC(=O)CNC(=O)CC[C@@H]1C(=O)[O][Lu]23[O]C(=O)CN4CCN(CCN1CCN(CC4)CC(=O)[O]2)CC(=O)[O]3)C(=O)N[C@H](C)C(=O)N1CCC[C@H]1B(O)O [Compound 6795DLU, (R)-DOTAGA(Lu)-Gly-Val-Dala-boroPro] | > 100 |  |  |  |  |
| CC(C)[C@H](NC(=O)CN1CCN2CCN(CC(=O)O)CCN(CC1)CC(=O)[O][Cu][O]C(=O)C2)C(=O)N[C@H](C)C(=O)N1CCC[C@H]1B(O)O (stereo in doubt) [Compound 6508CU, DOTA[(Cu(II)]-Val-D-Ala-boroPro] |  |  | 26.2 nM |  |  |
| C[C@@H](NC(=O)c1ccc(NNC(=O)CCCCCNC(=O)CN2CCN3CCN4CCN(CC2)CC(=O)[O][Lu]([O]C(=O)C3)[O]C(=O)C4)nc1)C(=O)N1CCC[C@H]1B(O)O [Compound 6958LU] |  | 0.155 | 1.1 nM |  |  |
| CC(C)[C@H](NC(=O)CNC(=O)CNC(=O)CN1CCN(CC(=O)O)CCN(CC(=O)O)CCN(CC(=O)O)CC1)C(=O)N[C@H](C)C(=O)N1CCCC1B1OC(=O)CN(C)CC(=O)O1 (stereo partly drawn) [Compound 6522M, DOTA-Gly-Gly-Val-D-alaboroPro-MIDA] (HELM PEPTIDE1{[O=C(O)CN1CCN(CC(=O)O)CCN(CC(=O)[*:2])CCN(CC(=O)O)CC1].G.G.V.[dA].[CN1CC(=O)OB(C2CCCN2[*:1])OC(=O)C1]}$$$$V2.0) |  |  | 280 nM |  |  |
| CC(C)[C@H](NC(=O)CNC(=O)CNC(=O)CN1CCN(CC(=O)O)CCN(CC(=O)O)CCN(CC(=O)O)CC1)C(=O)N[C@H](C)C(=O)N1CCC[C@H]1B(O)O [Compound 6522L, DOTA-Gly-Gly-Val-alaboroPro(L-ala)] (HELM PEPTIDE1{[O=C(O)CN1CCN(CC(=O)O)CCN(CC(=O)[*:2])CCN(CC(=O)O)CC1].G.G.V.[dA].[OB(O)[C@@H]1CCCN1[*:1]]}$$$$V2.0) | 3.4 | 0.0076 |  | > 100000 |  |
| CC(C)[C@H](NC(=O)CNC(=O)CC[C@H]1C(=O)[O][Lu]23[O]C(=O)CN4CCN(CCN1CCN(CC4)CC(=O)[O]2)CC(=O)[O]3)C(=O)N[C@H](C)C(=O)N1CCC[C@H]1B(O)O [Compound 6795LLU, (S)-DOTAGA-Gly-Val-Dala-boroPro (6795L-Lu Complex)] |  |  |  | 20.1 | 6.39 |
| C[C@@H](NC(=O)CN1CCN2CCN3CCN(CC1)CC(=O)[O][Gd]([O]C(=O)C2)[O]C(=O)C3)C(=O)N1CCC[C@H]1B(O)O [Compound 4535GD, DOTA[(Gd(III)]-D-alaboroPro] |  | > 10 | 760 nM |  |  |
| C[C@@H](NC(=O)c1ccc(NNC(=O)CN2CCN3CCN4CCN(CC2)CC(=O)[O][Gd]([O]C(=O)C3)[O]C(=O)C4)nc1)C(=O)N1CCC[C@H]1B(O)O [Compound 4536GD] | > 100 | > 100 |  |  |  |
| (R)-DOTAGA(Ga)-(Gly)3-Val-Dala-boroPro [Compound 6808DGA] |  |  | 89 nM |  |  |
| CC(C)[C@H](NC(=O)CNC(=O)CNC(=O)CNC(=O)CNC(=O)CN1CCN(CC(=O)O)CCN(CC(=O)O)CCN(CC(=O)O)CC1)C(=O)N[C@H](C)C(=O)N1CCC[C@H]1B(O)O [Compound 6839, DOTA-(Gly)4-Val-D-ala-boroPro] (HELM PEPTIDE1{[O=C(O)CN1CCN(CC(=O)O)CCN(CC(=O)[*:2])CCN(CC(=O)O)CC1].G.G.G.G.V.[dA].[OB(O)[C@@H]1CCCN1[*:1]]}$$$$V2.0) |  |  | 21 nM |  |  |
| CC(C)[C@H](NC(=O)CNC(=O)CNC(=O)CN1CCN2CCN3CCN(CC1)CC(=O)[O][Ga]([O]C(=O)C2)[O]C(=O)C3)C(=O)N[C@H](C)C(=O)N1CCC[C@H]1B(O)O [Compound 6522GA-02, DOTA(Ga)-Gly-Gly-Val-D-alaboroPro] (HELM PEPTIDE1{[O=C1CN2CCN3CCN(CC(=O)[*:2])CCN(CC2)CC(=O)[O][Ga]([O]1)[O]C(=O)C3].G.G.V.[dA].[OB(O)[C@@H]1CCCN1[*:1]]}$$$$V2.0) | > 100 | 19 | 575 nM |  |  |
| C[C@@H](NC(=O)c1ccc(NNC(=O)CCCCCC2=C(/C=C/C3=C(Oc4ccc(S(=O)(=O)O)cc4)C(=C/C=C4/N(CCCCS(=O)(=O)O)c5ccc(S(=O)(=O)O)cc5C4(C)C)/CCC3)C(C)(C)c3cc(S(=O)(=O)O)ccc32)cc1)C(=O)N1CCC[C@H]1B(O)O [Compound 4613C, IRDye 800CW-3860B] |  | 0.61 | 1.7 nM |  |  |
| C[C@@H](NC(=O)c1ccc(NNC(=O)CCCNC(=O)CN2CCN3CCN4CCN(CC2)CC(=O)[O][Lu]([O]C(=O)C3)[O]C(=O)C4)nc1)C(=O)N1CCC[C@H]1B(O)O [Compound 6609LU] |  | 0.06 | 1 nM |  |  |
| C[C@@H](NC(=O)c1ccc(NNC(=O)CN2CCN3CCN4CCN(CC2)CC(=O)[O][Ga]([O]C(=O)C3)[O]C(=O)C4)cc1)C(=O)N1CCC[C@H]1B(O)O [Compound 5183GA] |  |  | 46.1 nM |  |  |
| C[C@@H](NC(=O)[C@H](CO)NC(=O)CN1CCN(CC(=O)O)CCN(CC(=O)O)CCN(CC(=O)O)CC1)C(=O)N1CCC[C@H]1B(O)O [Compound 6509, DOTA-Ser-D-Ala-boroPro] |  |  | 186 nM |  |  |
| C[C@@H](NC(=O)c1ccc(NNC(=O)CN2CCN(CC(=O)O)CCN(CC(=O)O)CCN(CC(=O)O)CC2)nc1)C(=O)N1CCC[C@H]1B(O)O [Compound 4536] |  | 0.75 |  |  |  |

Reference: US11707539B2, “FAP-targeted radiopharmaceuticals and imaging agents, and uses related thereto” (Trustees of Tufts College, priority 2020, dated 2023)
